The target in test [1] is recombinant human estradiol receptors (rhER) beta 1 (β1) (Homo sapiens, UniProt Q92731). Briefly: competitive binding assay, displacement of [3H] estradiol radioligand from rhER beta 1. To be noted: tested up to 2.5×E-4 M.
In test [2] the target is T1, recombinant human estradiol receptors (rhER) alpha (α) (Homo sapiens, UniProt P03372).
T1 sequence (P03372 1-595): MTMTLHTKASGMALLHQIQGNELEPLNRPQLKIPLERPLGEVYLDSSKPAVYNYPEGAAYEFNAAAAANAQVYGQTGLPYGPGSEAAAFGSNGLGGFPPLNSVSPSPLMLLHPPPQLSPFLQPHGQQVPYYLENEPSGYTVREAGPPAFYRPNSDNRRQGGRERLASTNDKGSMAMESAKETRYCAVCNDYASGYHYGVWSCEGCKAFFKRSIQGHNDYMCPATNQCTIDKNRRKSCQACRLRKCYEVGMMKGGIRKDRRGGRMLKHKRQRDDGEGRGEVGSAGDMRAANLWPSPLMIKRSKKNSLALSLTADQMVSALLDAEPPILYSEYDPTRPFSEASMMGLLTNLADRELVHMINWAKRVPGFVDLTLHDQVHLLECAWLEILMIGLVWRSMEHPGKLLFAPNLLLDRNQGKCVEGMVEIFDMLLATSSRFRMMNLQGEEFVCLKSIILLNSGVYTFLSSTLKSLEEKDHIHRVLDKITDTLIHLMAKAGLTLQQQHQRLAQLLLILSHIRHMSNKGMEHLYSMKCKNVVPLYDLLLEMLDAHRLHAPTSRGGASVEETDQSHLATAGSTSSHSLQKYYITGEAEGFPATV
In words: competitive binding assay, displacement of [3H] estradiol radioligand from rhER alpha. To be noted: text statements, tested up to 2.5×E-4 M.

On to `CC(C)(c1ccccc1)c1ccc(O)cc1` [B, p-Cumyl Phenol, reference compound], for which, in test [1] (text statements), the “estradiol binding / displacement at the beta estradiol receptor (in words)” value is “displace estradiol at low concentrations”. In addition, in test [2], the “estradiol binding / displacement at the alpha estradiol receptor (in words)” value is “displace estradiol at low concentrations”.

As to `O=C1c2ccccc2C(c2ccc(O)cc2)(c2ccc(O)cc2)N1c1ccccc1` [Example 3, N-Phenyl Phenolphthalein Bisphenol], the “estradiol binding / displacement at the beta estradiol receptor (in words)” value in test [1] (text statements) was “no detectible estradiol displacement”; in test [1] (text statements, listed as N-phenyl phenolphthalein bisphenol), “no estradiol binding”. The “estradiol binding / displacement at the alpha estradiol receptor (in words)” value in test [2] is on record as “no detectible estradiol displacement”; in test [2] (listed as N-phenyl phenolphthalein bisphenol) it was “no estradiol binding”.

As for `Oc1cccc(O)c1` [Example 4, Resorcinol], the “estradiol binding / displacement at the beta estradiol receptor (in words)” value is recorded as “no detectible estradiol displacement” in test [1] (text statements) and “no estradiol binding” in test [1] (text statements, listed as resorcinol). In addition, the figures for the “estradiol binding / displacement at the alpha estradiol receptor (in words)” value in test [2] and in test [2] (listed as resorcinol) were “no detectible estradiol displacement” and “no estradiol binding”, respectively.

As for `Cc1cc(O)ccc1O` [Example 8, Methyl Hydroquinone], the “estradiol binding / displacement at the beta estradiol receptor (in words)” value in test [1] (text statements) is recorded as “no alpha or beta estradiol displacement”; in test [1] (text statements, listed as methyl hydroquinone), “no estradiol binding”.

As to `Cc1cc(C2(c3ccc(O)c(C)c3)CCCCC2)ccc1O` [G, Dimethyl Cyclohexyl Bisphenol, reference compound], the “estradiol binding / displacement at the beta estradiol receptor (in words)” value in test [1] (text statements) was “displace estradiol at low concentrations”. For the same compound, in test [2], the “estradiol binding / displacement at the alpha estradiol receptor (in words)” value is “displace estradiol at low concentrations”.

For `CC(C)(c1ccc(O)cc1)c1cccc(C(C)(C)c2ccc(O)cc2)c1` [K, Bisphenol M, reference compound], the “estradiol binding / displacement at the beta estradiol receptor (in words)” value in test [1] (text statements) was “displace estradiol at low concentrations”. Besides, the “estradiol binding / displacement at the alpha estradiol receptor (in words)” value in test [2] is “displace estradiol at low concentrations”.

`O=C1OC(c2ccc(O)cc2)(c2ccc(O)cc2)c2ccccc21` [O, Phenolphthalein, reference compound]: in test [1] (text statements), the “estradiol binding / displacement at the beta estradiol receptor (in words)” value is “estradiol displacement at low concentration”.

Biphenol [Example 6]: the “estradiol binding / displacement at the beta estradiol receptor (in words)” value in test [1] (text statements) is reported as “no estradiol binding”. In addition, the “estradiol binding / displacement at the alpha estradiol receptor (in words)” value in test [2] is “no displacement of the estradiol”; in test [2] (listed as biphenol), “no estradiol binding”.

Take “Bis Hydroxy Phenyl Menthane [reference compound]”: the “estradiol binding / displacement at the beta estradiol receptor (in words)” value in test [1] (text statements) was “displace estradiol at low concentrations”. The “estradiol binding / displacement at the alpha estradiol receptor (in words)” value in test [2] is reported as “displace estradiol at low concentrations”.

In the case of “Bisphenol Acetophenone [D, reference compound]”, in test [2], the “estradiol binding / displacement at the alpha estradiol receptor (in words)” value is on record as “displace estradiol at low concentrations”.

“Dihydroxy Diphenyl Ether [Example C, reference compound]”: in test [1] (text statements), the “estradiol binding / displacement at the beta estradiol receptor (in words)” value is on record as “displace estradiol at low concentrations”.

Consider “Diphenolic Acid Methyl Ester [F, reference compound]”, for which the “estradiol binding / displacement at the beta estradiol receptor (in words)” value in test [1] (text statements) is reported as “displace estradiol at low concentrations”. For the same compound, in test [2], the “estradiol binding / displacement at the alpha estradiol receptor (in words)” value was “displace estradiol at low concentrations”.

As for “Fluorenone Bis-o-Cresol [reference compound]”, the “estradiol binding / displacement at the beta estradiol receptor (in words)” value in test [1] (text statements) is given as “displace estradiol at low concentrations”.

As to Tetra Methyl BPA [Example 1], the “estradiol binding / displacement at the beta estradiol receptor (in words)” value in test [1] (listed as tetra methyl bisphenol-A) is reported as “no estradiol binding”; in test [1] (text statements) it was “no detectible estradiol displacement”.

(Values after patent publication US8686075B2, “Polysulfone compositions and methods for the manufacture and use thereof” (SABIC Innovative Plastics IP B.V., priority 2011, dated 2014).)
